Test system: A549 cell xenografts
Test: Tumor xenograft model
Assay type: in vivo, C.B-17 SCID mice
Details: docetaxel 10 mg/kg every 4 days, 6 doses
Method: Fifty-six female C.B-17 SCID mice were inoculated with A549 cells (5×10^6 cells/mouse) subcutaneously in the flank. Once tumor volume reached ˜100 mm^3, animals were randomized amongst 7 groups of 8 mice each. Mice were then treated intraperitonealy every 3 days for a total of 7 doses with isotype controls or novel mAbs 79E3E3, 16E10 and 9G04 (2 and 20 mg/kg) or with docetaxel at 10 mg/kg every 4 days for a total of 6 doses. Tumor volumes and body weights were recorded twice a week with a gap of 2-3 days in between two measurements until any of the following conditions defined were observed: loss of 20% or more body weight; tumors that inhibit normal physiological function such as eating, drinking, and mobility; ulcerated tumors; tumor size greater than 2000 mm^3 and clinical observations of prostration, paralysis, seizures and hemorrhages.
In this example, studies were performed to determine if inhibition of α11β1 function with mAb results in xenograft growth inhibition. As shown in FIG. 16 and Table 4, blocking α11β1 on mouse CAFs impeded xenograft growth in SCID mice.

Q: `CC(=O)O[C@@]12CO[C@@H]1C[C@H](O)[C@@]1(C)C(=O)[C@H](O)C3=C(C)[C@@H](OC(=O)[C@H](O)[C@@H](NC(=O)OC(C)(C)C)c4ccccc4)C[C@@](O)([C@@H](OC(=O)c4ccccc4)[C@H]21)C3(C)C` [Docetaxel, docetaxel, reference compound] was tested. Which “Days to Volume Doubling (ave, 95% CI)” value did it give?
A: 11.0 (10.0, 12.0) Days
